Data on 51 molecules can be found in PubChem BioAssay AID1996.

Molecules are shown by their SMILES. Values after ≈ are worked out from the molar mass of the structure shown.

The conditions of this data set: buffer; pH 7.4; 200.0 µM.
Take `COc1ccc(NS(=O)(=O)c2ccc3oc(=S)[nH]c3c2)cc1`: the solubility (kinetic) is over 50.5 µg/mL.

As for `Cc1nn(CC(=O)NCCC2=CCCCC2)c(C)c1S(=O)(=O)N(C)C`, the kinetic solubility was over 55.3 µg/mL.

Molecule `NC(Cc1ccccc1)c1nc(-c2ccccc2)no1` (stereo unspecified) displayed a solubility (kinetic) of over 39.8 µg/mL.

As for `CCc1cc(=O)[nH]c(SC/C=C/c2ccccc2)n1`, the solubility (kinetic) was 10.7 µg/mL (≈ 39.3 µM).

Consider `Fc1ccc2[nH]c3c(NCc4ccccc4)ncnc3c2c1`, for which the solubility (kinetic) stood at 3.4 µg/mL (≈ 11.6 µM).

`Nc1ccc(CCn2ccnc2)cc1` came in with a solubility (kinetic) of over 28.1 µg/mL.

Molecule `O=C(NC1CCCCC1)c1ccc(-c2ccccc2[N+](=O)[O-])o1` registered a kinetic solubility of 2.9 µg/mL (≈ 9.23 µM).

As to `Cc1cccc(NC(=S)N2CCN(c3ccccn3)CC2)c1`, the kinetic solubility came to 6.7 µg/mL (≈ 21.4 µM).

For `Cc1ccc(S(=O)(=O)Nc2ccc3c(c2)nc(C)n3C)cc1`, the solubility (kinetic) was determined as 0.8 µg/mL (≈ 2.54 µM).

As to `O=C(C1=C(O)C(=O)N(c2ncccn2)C1c1ccc(F)cc1)c1ccco1` (stereo unspecified), the kinetic solubility turned out to be 53.1 µg/mL (≈ 145 µM).

For the molecule `Cc1ccc(CNc2cc(C(=O)O)ccc2Cl)s1`, the solubility (kinetic) is over 42.3 µg/mL.

With `O=C1/C(=C\c2ccc(O)c(O)c2)N=C2CCCCCN12`, the solubility (kinetic) is over 40.8 µg/mL.

Regarding `Cc1noc(C)c1C(=O)OCC(=O)Nc1ccc(N2CCOCC2)cc1`, the solubility (kinetic) was 7.6 µg/mL (≈ 21.1 µM).

For `Cc1csc(=O)n1CCC(=O)OC(C)C(=O)NCc1ccccc1` (stereo unspecified), the kinetic solubility is over 52.3 µg/mL.

`COc1cccc(NC(=O)C2CCOC2=O)c1` (stereo unspecified) displayed a kinetic solubility of over 35.3 µg/mL.

In the case of `Cc1ccc(C(=O)N2CCN(CCNC(=O)C(=O)Nc3ccc(Cl)cc3)CC2)cc1`, the solubility (kinetic) amounted to 2.6 µg/mL (≈ 6.06 µM).

Regarding `CC(C)c1cc(CN2CCOCC2)cc(C(C)C)c1O`, the kinetic solubility was over 41.6 µg/mL.

In turn, `N#Cc1c(-c2ccccc2)oc(=O)c2ccccc12` displayed a kinetic solubility of 1.2 µg/mL (≈ 4.85 µM).

`Cc1ccc(NC(=S)N2CC(C)OC(C)C2)cc1C` (stereo unspecified): the kinetic solubility was over 41.8 µg/mL.

`COc1ccc(CC2CC(=O)N(c3ccc(C)cc3)C2=O)cc1` (stereo unspecified) gave a kinetic solubility of 4.4 µg/mL (≈ 14.2 µM).

The molecule `COc1ccc(S(=O)(=O)NCCC(=O)NC2CCCCC2C)cc1[N+](=O)[O-]` (stereo unspecified) had a solubility (kinetic) of 20.1 µg/mL (≈ 50.3 µM).

For `O=C(CCSCc1ccccc1F)NCc1cccnc1`, the kinetic solubility is over 45.7 µg/mL.

On to `CC(C)(C)NC(=O)NC(=O)COC(=O)CNC(=O)C1CCCCC1`, for which the solubility (kinetic) was 40.9 µg/mL (≈ 120 µM).

The molecule `O=C1OCc2nc3cc4c(cc3c(-c3ccc(F)cc3)c21)OCO4` came in with a solubility (kinetic) of 1.2 µg/mL (≈ 3.71 µM).

As to `O=C(NCc1nc2ccccc2[nH]1)c1ccccc1F`, the solubility (kinetic) is over 40.4 µg/mL.

`CCOP(=O)(c1ccccc1)C(O)c1ccc([N+](=O)[O-])cc1` (stereo unspecified) yielded a kinetic solubility of over 48.2 µg/mL.

On to `Cc1c(C(=O)NCc2ccco2)oc2c(F)cccc12`, for which the solubility (kinetic) amounted to 8.1 µg/mL (≈ 29.6 µM).

Turning to `O=C(CNC(=O)c1ccco1)Nc1ccc(OC(F)F)cc1`, the kinetic solubility was over 46.5 µg/mL.

The molecule `COc1ccccc1NC(=O)CCN1C(=O)C2CC=CCC2C1=O` (stereo unspecified) yielded a kinetic solubility of over 49.3 µg/mL.

Molecule `O=[N+]([O-])c1ccc(N2CCN(c3ccc(F)cc3)CC2)cn1` had a kinetic solubility of 3.5 µg/mL (≈ 11.6 µM).

Molecule `N#Cc1ccc(COC(=O)CCc2c[nH]c3ccccc23)cc1` registered a kinetic solubility of 3 µg/mL (≈ 9.86 µM).

`N#C/C(=C\c1ccc2c(c1)OCO2)C(N)=S` showed a solubility (kinetic) of 5.8 µg/mL (≈ 25 µM).

Molecule `O=C(COC(=O)c1cc(=O)[nH]c(=O)[nH]1)Nc1ccccc1F` displayed a kinetic solubility of over 46.1 µg/mL.

Turning to `CN1CCCN(Cc2ccccc2Br)CC1`, the kinetic solubility came out at 35.3 µg/mL (≈ 125 µM).

The molecule `c1ccc(N2CCN(c3nc4ccccc4[nH]3)CC2)nc1` displayed a solubility (kinetic) of 41.7 µg/mL (≈ 149 µM).

Turning to `Fc1cccc(/C=N/Nc2nccnc2Cl)c1`, the kinetic solubility was over 37.6 µg/mL.

The molecule `Cl.NC(=NCCc1ccccc1)c1cccc([N+](=O)[O-])c1` gave a kinetic solubility of over 45.9 µg/mL.

`COC(=O)C(N)Cc1ccc(OC)c([N+](=O)[O-])c1.Cl` (stereo unspecified) yielded a kinetic solubility of over 43.6 µg/mL.

In the case of `Cc1nccc(-c2ccc(-n3c(C)ccc3C)cc2)n1`, the solubility (kinetic) stood at 33 µg/mL (≈ 125 µM).

For the molecule `COc1ccc(CCNC(=O)c2cnc3ccccc3n2)cc1`, the kinetic solubility came out at 40.2 µg/mL (≈ 131 µM). This solubility kinetic and that of the molecule before are within 1.5-fold of each other.

In turn, `Cc1cc(C(=O)Nc2c(F)cc(F)cc2Br)cs1` displayed a solubility (kinetic) of 25.9 µg/mL (≈ 78 µM).

In the case of `N#Cc1cn(Cc2ccccc2)c(=O)[nH]c1=O`, the solubility (kinetic) is over 34.1 µg/mL.

As for `Cc1csc(NC(=O)CSc2nncs2)n1`, the solubility (kinetic) is over 40.9 µg/mL.

`O=C(CCc1nc2ccccc2c(=O)[nH]1)N1CCN(c2ccccc2Cl)CC1` yielded a solubility (kinetic) of 3.2 µg/mL (≈ 8.06 µM).

`O=S(=O)(Nc1ccc(N2CCCCC2)cc1)c1ccc(F)cc1` came in with a solubility (kinetic) of 9.5 µg/mL (≈ 28.4 µM).

Consider `O=C(c1ccccc1)c1ccc(-n2ccnc2)c([N+](=O)[O-])c1`, for which the kinetic solubility came to 34.4 µg/mL (≈ 117 µM).

`O=C(OCC(=O)c1ccc(Cl)cc1Cl)c1ccccn1`: the solubility (kinetic) is over 46.5 µg/mL.

Regarding `Cc1ccc(Nc2c(-c3ccccc3O)nc3ncccn23)cc1`, the solubility (kinetic) came to 0.7 µg/mL (≈ 2.21 µM).

Molecule `CC(C)c1cccc(C(C)C)c1NC(=O)c1ccccc1` had a kinetic solubility of 1.7 µg/mL (≈ 6.04 µM).

`COCCCN(C(=O)C1CCCCC1)c1c(N)n(Cc2ccccc2)c(=O)[nH]c1=O` came in with a kinetic solubility of 14.3 µg/mL (≈ 34.5 µM).

`COC(CNC(=O)c1coc2nc3ccccc3nc12)OC` yielded a kinetic solubility of 34.8 µg/mL (≈ 115 µM).
